Three compounds from ChEMBL document CHEMBL5715954, “Silencing c-Myc translation as a therapeutic strategy through targeting PI3Kδ and CK1ε in hematological malignancies” (Blood, 2017) can be followed below.

What all share (parameters): scale not given: the % may be the effect or the level left
Assay [1] concerns the target Tyrosine-protein kinase receptor UFO (Homo sapiens) (UniProt P30530). Briefly: Inhibition of human AXL assessed as enzyme activity at 1 uM using poly[Glu:Tyr] (4:1) as substrate preincubated for 20 mins followed by [gamma-33P]-ATP addition and measured after 120 mins by radiometric Hot-SpotSM Kinase assay relative to control.
Assay [2] concerns the target Fibroblast growth factor receptor 1 (Homo sapiens) (UniProt P11362). The experiment in a line: Inhibition of human FGFR1 assessed as enzyme activity at 1 uM using poly[Glu:Tyr] (4:1) as substrate preincubated for 20 mins followed by [gamma-33P]-ATP addition and measured after 120 mins by radiometric Hot-SpotSM Kinase assay relative to control.
Assay [3] addresses T1, Dual specificity mitogen-activated protein kinase kinase 7 (Homo sapiens) (UniProt O14733).
T1 sequence (whole entry): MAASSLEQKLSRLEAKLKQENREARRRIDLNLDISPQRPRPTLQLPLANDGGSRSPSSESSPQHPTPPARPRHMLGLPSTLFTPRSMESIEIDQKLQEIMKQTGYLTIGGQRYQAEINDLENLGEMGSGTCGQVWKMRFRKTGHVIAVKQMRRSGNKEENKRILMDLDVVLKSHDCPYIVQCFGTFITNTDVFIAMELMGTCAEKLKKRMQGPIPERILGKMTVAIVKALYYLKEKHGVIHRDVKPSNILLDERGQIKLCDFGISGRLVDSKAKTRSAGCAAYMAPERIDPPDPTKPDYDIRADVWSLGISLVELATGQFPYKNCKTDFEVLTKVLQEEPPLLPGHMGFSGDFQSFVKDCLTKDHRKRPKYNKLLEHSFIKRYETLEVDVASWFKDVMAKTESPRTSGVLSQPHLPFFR
The experiment in a line: Inhibition of human MKK7 assessed as enzyme activity at 1 uM using JNK (K55M) as substrate preincubated for 20 mins followed by [gamma-33P]-ATP addition and measured after 120 mins by radiometric Hot-SpotSM Kinase assay relative to control.

The target of assay [4] is T2, Serine/threonine-protein kinase 4 (Homo sapiens) (UniProt Q13043).
T2 sequence (whole entry): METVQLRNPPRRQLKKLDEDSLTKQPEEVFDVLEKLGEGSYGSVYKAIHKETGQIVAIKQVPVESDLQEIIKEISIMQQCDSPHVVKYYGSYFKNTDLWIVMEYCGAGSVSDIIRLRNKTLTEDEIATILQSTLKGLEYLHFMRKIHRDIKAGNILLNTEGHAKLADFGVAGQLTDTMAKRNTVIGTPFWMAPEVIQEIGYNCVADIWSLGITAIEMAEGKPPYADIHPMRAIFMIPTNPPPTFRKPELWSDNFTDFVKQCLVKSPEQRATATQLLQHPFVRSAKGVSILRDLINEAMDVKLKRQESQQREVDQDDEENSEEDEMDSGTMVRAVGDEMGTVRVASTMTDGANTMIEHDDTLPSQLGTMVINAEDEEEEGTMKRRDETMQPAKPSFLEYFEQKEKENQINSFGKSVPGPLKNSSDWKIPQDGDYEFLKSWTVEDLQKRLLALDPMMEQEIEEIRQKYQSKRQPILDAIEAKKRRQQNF
Briefly: Inhibition of human MST1 assessed as enzyme activity at 1 uM using KKSRGDYMTMQIG as substrate preincubated for 20 mins followed by [gamma-33P]-ATP addition and measured after 120 mins by radiometric Hot-SpotSM Kinase assay relative to control.

Assay [5] has as its target Mitogen-activated protein kinase 11 (Homo sapiens) (UniProt Q15759). Briefly: Inhibition of human P38b assessed as enzyme activity at 1 uM using myelin basic protein as substrate preincubated for 20 mins followed by [gamma-33P]-ATP addition and measured after 120 mins by radiometric Hot-SpotSM Kinase assay relative to control.
The target in assay [6] is Proto-oncogene tyrosine-protein kinase ROS (Homo sapiens) (UniProt P08922). Briefly: Inhibition of human ROS assessed as enzyme activity at 1 uM using KKKSPGEYVNIEFG as substrate preincubated for 20 mins followed by [gamma-33P]-ATP addition and measured after 120 mins by radiometric Hot-SpotSM Kinase assay relative to control.
Assay [7] deals with T3, Serine/threonine-protein kinase ULK1 (Homo sapiens) (UniProt O75385).
T3 sequence (whole entry): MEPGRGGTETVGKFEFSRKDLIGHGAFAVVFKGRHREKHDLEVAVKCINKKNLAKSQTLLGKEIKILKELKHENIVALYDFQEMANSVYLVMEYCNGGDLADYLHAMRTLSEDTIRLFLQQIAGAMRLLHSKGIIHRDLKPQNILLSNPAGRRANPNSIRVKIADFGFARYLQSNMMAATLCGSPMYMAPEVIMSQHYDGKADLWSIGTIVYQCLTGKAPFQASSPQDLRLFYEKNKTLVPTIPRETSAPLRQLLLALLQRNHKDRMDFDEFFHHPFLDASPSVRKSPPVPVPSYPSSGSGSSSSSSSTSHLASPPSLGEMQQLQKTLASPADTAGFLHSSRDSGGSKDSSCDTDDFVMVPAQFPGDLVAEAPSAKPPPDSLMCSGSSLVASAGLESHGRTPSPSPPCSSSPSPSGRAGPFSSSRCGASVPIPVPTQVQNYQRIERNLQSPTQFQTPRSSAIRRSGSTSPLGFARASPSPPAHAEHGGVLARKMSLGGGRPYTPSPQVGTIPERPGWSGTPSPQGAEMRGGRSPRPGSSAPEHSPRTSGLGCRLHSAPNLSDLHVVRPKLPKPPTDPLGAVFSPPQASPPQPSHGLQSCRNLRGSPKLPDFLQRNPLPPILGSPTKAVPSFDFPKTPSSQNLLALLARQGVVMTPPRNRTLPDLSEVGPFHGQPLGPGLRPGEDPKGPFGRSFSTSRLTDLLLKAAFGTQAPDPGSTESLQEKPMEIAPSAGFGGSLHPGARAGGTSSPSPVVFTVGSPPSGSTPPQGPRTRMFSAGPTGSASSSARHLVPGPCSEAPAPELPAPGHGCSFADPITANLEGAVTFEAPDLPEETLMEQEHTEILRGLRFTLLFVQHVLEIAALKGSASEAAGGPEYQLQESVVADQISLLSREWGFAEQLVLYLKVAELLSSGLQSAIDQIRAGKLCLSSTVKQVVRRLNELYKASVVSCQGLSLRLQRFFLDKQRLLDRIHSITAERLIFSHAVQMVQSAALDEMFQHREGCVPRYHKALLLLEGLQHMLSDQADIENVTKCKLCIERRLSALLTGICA
Briefly: Inhibition of human ULK1 assessed as enzyme activity at 1 uM using myelin basic protein as substrate preincubated for 20 mins followed by [gamma-33P]-ATP addition and measured after 120 mins by radiometric Hot-SpotSM Kinase assay relative to control.

Sequence of Proto-oncogene tyrosine-protein kinase ROS (Homo sapiens) (P08922 whole entry): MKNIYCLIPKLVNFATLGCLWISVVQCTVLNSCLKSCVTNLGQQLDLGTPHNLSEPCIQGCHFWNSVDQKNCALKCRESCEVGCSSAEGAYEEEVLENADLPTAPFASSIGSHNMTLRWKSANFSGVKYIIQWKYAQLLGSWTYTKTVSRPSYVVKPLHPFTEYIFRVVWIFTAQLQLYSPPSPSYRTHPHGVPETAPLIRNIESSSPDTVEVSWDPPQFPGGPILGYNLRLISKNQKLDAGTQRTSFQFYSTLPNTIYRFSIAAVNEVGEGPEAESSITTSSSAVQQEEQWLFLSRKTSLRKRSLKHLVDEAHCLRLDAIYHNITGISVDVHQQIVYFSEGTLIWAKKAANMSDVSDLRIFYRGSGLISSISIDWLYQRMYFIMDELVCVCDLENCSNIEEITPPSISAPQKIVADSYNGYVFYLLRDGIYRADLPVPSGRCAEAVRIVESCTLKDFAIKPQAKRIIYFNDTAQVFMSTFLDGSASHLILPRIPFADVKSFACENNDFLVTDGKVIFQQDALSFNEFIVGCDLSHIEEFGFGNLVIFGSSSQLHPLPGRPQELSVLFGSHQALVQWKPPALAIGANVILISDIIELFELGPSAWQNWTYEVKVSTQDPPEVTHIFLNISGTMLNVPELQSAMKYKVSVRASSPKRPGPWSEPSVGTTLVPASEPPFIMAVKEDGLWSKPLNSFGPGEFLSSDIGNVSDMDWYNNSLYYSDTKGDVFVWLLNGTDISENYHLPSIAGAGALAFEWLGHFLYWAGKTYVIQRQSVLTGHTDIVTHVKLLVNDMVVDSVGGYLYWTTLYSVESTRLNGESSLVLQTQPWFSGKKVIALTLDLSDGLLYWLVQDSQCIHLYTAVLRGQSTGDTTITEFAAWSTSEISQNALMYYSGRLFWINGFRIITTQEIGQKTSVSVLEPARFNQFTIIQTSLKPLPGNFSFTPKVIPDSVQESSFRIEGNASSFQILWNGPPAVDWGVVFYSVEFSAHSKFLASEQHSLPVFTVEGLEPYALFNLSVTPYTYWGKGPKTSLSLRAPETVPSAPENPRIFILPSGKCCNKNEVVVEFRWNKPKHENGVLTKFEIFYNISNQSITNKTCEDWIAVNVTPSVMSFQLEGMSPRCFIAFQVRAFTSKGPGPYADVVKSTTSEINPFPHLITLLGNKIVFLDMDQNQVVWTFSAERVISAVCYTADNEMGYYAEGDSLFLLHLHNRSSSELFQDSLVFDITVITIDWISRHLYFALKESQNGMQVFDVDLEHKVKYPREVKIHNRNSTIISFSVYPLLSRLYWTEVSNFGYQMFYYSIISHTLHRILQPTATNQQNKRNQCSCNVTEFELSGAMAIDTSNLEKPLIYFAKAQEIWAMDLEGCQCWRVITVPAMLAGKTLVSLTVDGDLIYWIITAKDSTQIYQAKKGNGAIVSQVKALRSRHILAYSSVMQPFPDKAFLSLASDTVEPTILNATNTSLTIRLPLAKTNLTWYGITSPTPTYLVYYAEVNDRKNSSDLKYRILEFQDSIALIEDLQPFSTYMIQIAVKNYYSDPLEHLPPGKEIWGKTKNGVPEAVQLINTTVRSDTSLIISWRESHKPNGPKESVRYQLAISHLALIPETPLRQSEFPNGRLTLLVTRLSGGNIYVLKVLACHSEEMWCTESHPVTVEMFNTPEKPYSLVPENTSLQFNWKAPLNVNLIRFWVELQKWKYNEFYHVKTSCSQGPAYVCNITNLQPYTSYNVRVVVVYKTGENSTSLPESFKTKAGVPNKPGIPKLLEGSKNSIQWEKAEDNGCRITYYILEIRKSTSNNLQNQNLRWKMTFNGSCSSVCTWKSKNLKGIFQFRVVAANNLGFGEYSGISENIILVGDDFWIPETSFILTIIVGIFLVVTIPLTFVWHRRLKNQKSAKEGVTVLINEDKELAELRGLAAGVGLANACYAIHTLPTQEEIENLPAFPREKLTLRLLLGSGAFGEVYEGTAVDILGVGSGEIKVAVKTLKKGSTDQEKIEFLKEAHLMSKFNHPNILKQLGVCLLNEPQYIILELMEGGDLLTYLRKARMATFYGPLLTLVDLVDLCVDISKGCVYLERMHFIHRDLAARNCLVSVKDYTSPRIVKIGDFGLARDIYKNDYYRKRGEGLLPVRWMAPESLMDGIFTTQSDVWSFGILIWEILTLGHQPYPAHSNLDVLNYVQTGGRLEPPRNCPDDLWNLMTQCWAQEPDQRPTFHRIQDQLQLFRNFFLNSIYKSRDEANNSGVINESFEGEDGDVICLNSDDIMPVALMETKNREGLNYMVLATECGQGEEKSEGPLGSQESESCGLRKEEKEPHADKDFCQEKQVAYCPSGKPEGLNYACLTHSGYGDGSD
Sequence of Fibroblast growth factor receptor 1 (Homo sapiens) (P11362 22-822 limits assumed): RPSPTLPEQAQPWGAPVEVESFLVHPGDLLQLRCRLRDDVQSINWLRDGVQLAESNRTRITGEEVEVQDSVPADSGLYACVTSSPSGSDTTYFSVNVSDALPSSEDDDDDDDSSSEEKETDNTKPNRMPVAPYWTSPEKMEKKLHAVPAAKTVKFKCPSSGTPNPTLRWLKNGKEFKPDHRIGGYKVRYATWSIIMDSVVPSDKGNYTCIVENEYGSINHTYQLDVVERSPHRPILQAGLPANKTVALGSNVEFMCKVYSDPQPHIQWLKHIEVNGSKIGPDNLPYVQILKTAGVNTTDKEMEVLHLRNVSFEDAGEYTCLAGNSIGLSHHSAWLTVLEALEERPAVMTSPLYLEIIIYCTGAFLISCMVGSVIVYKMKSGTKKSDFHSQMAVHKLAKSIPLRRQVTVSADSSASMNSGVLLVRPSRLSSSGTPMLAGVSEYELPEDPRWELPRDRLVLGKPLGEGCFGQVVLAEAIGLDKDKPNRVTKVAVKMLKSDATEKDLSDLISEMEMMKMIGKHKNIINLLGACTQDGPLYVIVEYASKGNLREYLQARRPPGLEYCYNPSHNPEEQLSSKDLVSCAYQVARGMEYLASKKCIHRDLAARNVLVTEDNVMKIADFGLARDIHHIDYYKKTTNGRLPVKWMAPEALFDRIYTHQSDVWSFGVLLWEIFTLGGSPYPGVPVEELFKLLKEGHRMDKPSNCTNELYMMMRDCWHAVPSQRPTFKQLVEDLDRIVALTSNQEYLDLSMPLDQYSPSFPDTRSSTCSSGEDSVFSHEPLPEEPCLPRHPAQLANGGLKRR
Sequence of Mitogen-activated protein kinase 11 (Homo sapiens) (Q15759 whole entry): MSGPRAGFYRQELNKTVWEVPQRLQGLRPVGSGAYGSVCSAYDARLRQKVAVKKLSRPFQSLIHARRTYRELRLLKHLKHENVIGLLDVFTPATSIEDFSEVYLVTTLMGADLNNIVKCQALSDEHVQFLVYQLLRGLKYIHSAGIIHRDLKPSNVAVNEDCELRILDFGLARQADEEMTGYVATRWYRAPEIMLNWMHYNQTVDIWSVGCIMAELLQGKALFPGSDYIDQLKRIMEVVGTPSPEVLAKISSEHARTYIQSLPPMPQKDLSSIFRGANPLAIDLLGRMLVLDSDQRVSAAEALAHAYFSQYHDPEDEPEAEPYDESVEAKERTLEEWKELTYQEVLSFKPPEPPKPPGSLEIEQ
Sequence of Tyrosine-protein kinase receptor UFO (Homo sapiens) (P30530 whole entry): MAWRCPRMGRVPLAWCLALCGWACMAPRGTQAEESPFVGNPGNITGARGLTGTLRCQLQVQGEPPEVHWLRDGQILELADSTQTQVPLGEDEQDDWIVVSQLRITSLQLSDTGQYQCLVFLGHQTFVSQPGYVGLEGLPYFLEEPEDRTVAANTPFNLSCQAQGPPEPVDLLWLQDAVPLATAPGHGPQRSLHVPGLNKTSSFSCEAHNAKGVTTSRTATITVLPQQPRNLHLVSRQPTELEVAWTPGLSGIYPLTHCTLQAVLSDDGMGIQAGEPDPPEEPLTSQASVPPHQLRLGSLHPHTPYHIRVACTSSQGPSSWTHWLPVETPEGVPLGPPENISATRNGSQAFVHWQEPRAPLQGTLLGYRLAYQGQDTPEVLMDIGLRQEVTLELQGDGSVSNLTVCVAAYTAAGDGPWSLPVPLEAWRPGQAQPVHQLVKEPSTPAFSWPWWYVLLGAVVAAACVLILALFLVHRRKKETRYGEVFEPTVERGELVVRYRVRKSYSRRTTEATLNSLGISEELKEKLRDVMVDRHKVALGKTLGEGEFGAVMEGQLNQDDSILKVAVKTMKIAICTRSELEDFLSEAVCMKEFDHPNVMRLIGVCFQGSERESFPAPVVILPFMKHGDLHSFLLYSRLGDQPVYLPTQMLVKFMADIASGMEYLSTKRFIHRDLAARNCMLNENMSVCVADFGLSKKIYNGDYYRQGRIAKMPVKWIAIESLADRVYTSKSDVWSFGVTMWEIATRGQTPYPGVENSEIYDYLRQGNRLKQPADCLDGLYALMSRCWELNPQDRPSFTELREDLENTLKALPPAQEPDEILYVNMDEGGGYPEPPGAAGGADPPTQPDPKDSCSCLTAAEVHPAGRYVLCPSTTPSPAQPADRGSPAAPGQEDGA

With `C[C@H](Nc1ncnc2nc[nH]c12)c1cc2cccc(Cl)c2c(=O)n1-c1ccccc1`, the Activity is 93.9% in assay [1]; 95.7% in assay [2]; 96% in assay [3]; 94.1% in assay [4]; 92.6% in assay [5]; 86.7% in assay [6]. In addition, the Activity in assay [7] was found to be 111%.
With `CC[C@H](Nc1ncnc2[nH]cnc12)c1nc2cccc(F)c2c(=O)n1-c1ccccc1`, the Activity in assay [1] was 93.5%; in assay [2], 98%; in assay [3] it was 95.1%; in assay [4], 89.8%; in assay [5] it was 94.8%; in assay [6], 98%. Also, the Activity in assay [7] stood at 96.9%.
Consider `CC(C)Oc1ccc(-c2nn([C@@H](C)c3oc4ccc(F)cc4c(=O)c3-c3cccc(F)c3)c3ncnc(N)c23)cc1F` [UMBRALISIB], for which the Activity worked out at 91.2% in assay [1]; 99.5% in assay [2]; 96.9% in assay [3]; 95.1% in assay [4]; 89.3% in assay [5]; 94.5% in assay [6]. The Activity in assay [7] came out at 100%.
